Assay: xn = mol fraction of the nth substance listed
Details: Liquid, Vibrating tube method, x1 = 1

CCO [ethanol] + CC1CCCCC1
mass density [kg/m3]
Details | 100 kPa | 5000 kPa | 10000 kPa | 15000 kPa | 20000 kPa | 25000 kPa | 30000 kPa | 35000 kPa | 40000 kPa | 45000 kPa
283.15 K | 798 | 802 | 805.9 | 809.5 | 813 | 816.4 | 819.7 | 822.8 | 825.9 | 828.8
293.15 K | 789.5 | 793.7 | 797.8 | 801.6 | 805.3 | 808.9 | 812.3 | 815.6 | 818.7 | 821.8
303.15 K | 780.9 | 785.3 | 789.6 | 793.7 | 797.5 | 801.3 | 804.8 | 808.2 | 811.5 | 814.7
313.15 K | 772.1 | 776.8 | 781.3 | 785.6 | 789.6 | 793.5 | 797.2 | 800.8 | 804.2 | 807.6
323.15 K | 763.3 | 768.3 | 773 | 777.6 | 781.8 | 785.9 | 789.7 | 793.5 | 797.1 | 800.5
333.15 K | 754 | 759.3 | 764.3 | 769.1 | 773.6 | 777.8 | 781.9 | 785.8 | 789.5 | 793.1
343.15 K | 744.5 | 750.1 | 755.5 | 760.5 | 765.3 | 769.8 | 774 | 778.1 | 782 | 785.7
353.15 K | – | 740.6 | 746.4 | 751.7 | 756.7 | 761.5 | 766 | 770.2 | 774.3 | 778.2

Source: the NIST ThermoML archive (doi:10.1016/j.jct.2005.03.016)
